Measured values from publication PMC10333884, “Large‐scale phosphomimetic screening identifies phospho‐modulated motif‐based protein interactions” (Molecular Systems Biology, 2023).
Where two headings read alike, the source gives them in different places. Non-standard residues stand in square brackets, D forms with d. Residues, ends and D or L forms follow the SMILES beside them. pT = C[C@@H](OP(=O)(O)O)[C@H](N)C(=O)O; pS = N[C@@H](COP(=O)(O)O)C(=O)O

Key:
Type in all cases: binding
GABARAPL2 = molecular target: T1, GABARAPL2 (Homo sapiens, UniProt P60520); assay: FP displacement assay, GABARAPL2
T1 construct: GABARAPL2_ATG8__P60520_2_115; GST (cleaved yes); made in house; host or cells: Escherichia coli BL21-Gold(DE3)
Protocol: (§1) FP experiments were performed as described previously (Kliche et al, [2021]). Shortly, in order to monitor the binding event, FITC‐labelled peptides were used (excitation 495 nm, emission: 535 nm) and the FP signal was recorded in mP on a SpectraMax iD5 Multi‐Mode Microplate Reader (Molecular Devices) by measuring the emitted light in two angels. The measurements were performed at room temperature and prepared in nonbinding black half area 96‐well microplates (Corning®; 50 μl/well). For measuring direct binding, that is saturation curves, a 1:1 dilution series of protein domain (25 μl/well) was generated in 50 mM sodium phosphate buffer pH 7.4 and the measurement performed with 5 nM FITC‐labelled peptide (25 μl/well). The buffer‐corrected values were subsequently plotted with PRISM and fitted to the quadratic equation (Gianni et al, [2005]).
(§2) The 1:1 dilution series in this experiment was performed with the unlabelled peptide in 50 mM sodium phosphate buffer pH 7.4, so that each well‐contained unlabelled peptide (25 μl) at a certain concentration and pre‐formed complex (25 μl). The KD values of this indirectly monitored binding event were calculated as described previously (Nikolovska‐Coleska et al, [2004]). All measurements were at least in technical triplicates as well as biological duplicates when indicated. An amplitude shift between repeat measurements in the displacement experiments was occasionally observed due to variations in the protein preparations. If that was the case, the “active” protein concentration was back‐calculated according to the quadratic equation from the saturation curves performed in parallel. By comparing the active protein concentrations in the complex between different protein preparations, the amplitude was normalised.

MAP1LC3B = molecular target: T2, MAP1LC3B (Homo sapiens, UniProt Q9GZQ8); assay: FP displacement assay, MAP1LC3B; conditions: read-out: KD values ± SEM
T2 construct: GST (cleaved yes); made in house; host or cells: Escherichia coli BL21-Gold(DE3)
Protocol: as §1, §2

MAP1LC3B ATG8 = molecular target: T3, MAP1LC3B ATG8 (Homo sapiens, UniProt Q9GZQ8); assay: ITC, MAP1LC3B ATG8; conditions: for Kd: ITC (iTC200), 50 mM sodium phosphate pH 7.4, 1 mM DTT, average of the runs, at least technical triplicates
T3 construct: MAP1LC3B ATG8; made in house; host or cells: Escherichia coli BL21-Gold(DE3)

KPNA4 ARM Major = molecular target: T4, KPNA4 ARM Major (Homo sapiens, UniProt O00629); assay: FP displacement assay, KPNA4 ARM major pocket; conditions: for IC50: Fig 3E, KPNA4 ARM major, technical triplicates, read-out: IC50 values of displacement curves, with SEM; for Kd: major pocket probe FITC-MYC 5 nM, 50 mM sodium phosphate pH 7.4, room temperature, at least three technical replicates, read-out: KD values ± SEM
T4 construct: 60-487; GST (cleaved yes); made in house; host or cells: Escherichia coli BL21-Gold(DE3)
Protocol: as §1, §2

KPNA4 ARM minor = molecular target: T5, KPNA4 ARM minor (Homo sapiens, UniProt O00629); assay: FP displacement assay, KPNA4 ARM minor pocket; conditions: for IC50: Fig 3E, KPNA4 ARM minor, technical triplicates, read-out: IC50 values of displacement curves, with SEM; for Kd: minor pocket probe FITC-NCOR2 5 nM, 50 mM sodium phosphate pH 7.4, room temperature, at least three technical replicates, read-out: KD values ± SEM
T5 construct: 60-487; GST (cleaved yes); made in house; host or cells: Escherichia coli BL21-Gold(DE3)
Protocol: as §1, §2

[1] = ITC single run: date 200402, injection 1
[2] = ITC single run: date 200402, injection 2
[3] = ITC single run: date 200402, injection 3

T1 sequence (P60520 2-115): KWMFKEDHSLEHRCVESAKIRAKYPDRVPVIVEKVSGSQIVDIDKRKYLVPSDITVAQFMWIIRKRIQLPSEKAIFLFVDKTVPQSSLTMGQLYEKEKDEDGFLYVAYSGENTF
T5 sequence (O00629 60-487): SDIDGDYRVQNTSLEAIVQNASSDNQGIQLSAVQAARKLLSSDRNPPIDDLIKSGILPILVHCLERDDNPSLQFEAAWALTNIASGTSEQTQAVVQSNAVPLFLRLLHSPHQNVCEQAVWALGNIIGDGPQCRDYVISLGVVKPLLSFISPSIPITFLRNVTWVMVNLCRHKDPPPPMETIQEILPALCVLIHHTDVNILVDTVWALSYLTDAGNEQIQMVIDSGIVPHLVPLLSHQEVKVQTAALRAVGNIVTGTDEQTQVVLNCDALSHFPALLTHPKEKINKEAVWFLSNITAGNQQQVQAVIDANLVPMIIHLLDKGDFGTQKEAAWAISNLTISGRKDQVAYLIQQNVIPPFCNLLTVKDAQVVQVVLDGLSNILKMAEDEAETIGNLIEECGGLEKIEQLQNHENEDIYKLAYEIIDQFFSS
T4 sequence (O00629 60-487): as above

CC(=O)N[C@@H](CC(C)C)C(=O)N[C@@H](CCC(=O)O)C(=O)N[C@@H](CC(=O)O)C(=O)N[C@@H](CC(=O)O)C(=O)N[C@@H](CCC(=O)O)C(=O)N[C@@H](CCC(N)=O)C(=O)N[C@@H](Cc1ccccc1)C(=O)N[C@H](C(=O)N[C@@H](COP(=O)(O)O)C(=O)N[C@@H](CC(C)C)C(=O)N[C@@H](Cc1ccc(O)cc1)C(=O)NCC(=O)N[C@H](C(=O)N[C@@H](CCC(=O)O)C(=O)N[C@@H](CCC(=O)O)C(=O)N[C@@H](Cc1ccc(O)cc1)C(N)=O)[C@@H](C)O)C(C)C [TBK1_164–179 pS]
Kd (GABARAPL2; read-out: KD values ± SEM): 2.8 ± 0.6 µM | Kd (MAP1LC3B): 1.3 ± 0.3 µM | Kd (MAP1LC3B ATG8): 2.67 µM | Ka (MAP1LC3B ATG8; [1]): 270000 | Ka (MAP1LC3B ATG8; [2]): 480000 | Ka (MAP1LC3B ATG8; [3]): 520000

CC(=O)N[C@@H](CC(C)C)C(=O)N[C@@H](CCC(=O)O)C(=O)N[C@@H](CC(=O)O)C(=O)N[C@@H](CC(=O)O)C(=O)N[C@@H](CCC(=O)O)C(=O)N[C@@H](CCC(N)=O)C(=O)N[C@@H](Cc1ccccc1)C(=O)N[C@H](C(=O)N[C@@H](CO)C(=O)N[C@@H](CC(C)C)C(=O)N[C@@H](Cc1ccc(O)cc1)C(=O)NCC(=O)N[C@H](C(=O)N[C@@H](CCC(=O)O)C(=O)N[C@@H](CCC(=O)O)C(=O)N[C@@H](Cc1ccc(O)cc1)C(N)=O)[C@@H](C)O)C(C)C [TBK1_164–179 wt]
Kd (GABARAPL2; read-out: KD values ± SEM): 19 ± 4 µM | Kd (MAP1LC3B): 10.5 ± 0.1 µM | Kd (MAP1LC3B ATG8): 8 µM | Ka (MAP1LC3B ATG8; ITC single run: date 2101 new, injection 1): 84300 | Ka (MAP1LC3B ATG8; [1]): 143000 | Ka (MAP1LC3B ATG8; [2]): 170000 | Ka (MAP1LC3B ATG8; [3]): 144000

CC(=O)N[C@@H](CCC(N)=O)C(=O)N[C@@H](CC(N)=O)C(=O)N[C@@H](CC(C)C)C(=O)N[C@@H](CO)C(=O)N[C@@H](CCCNC(=N)N)C(=O)N[C@@H](CO)C(=O)N[C@@H](Cc1c[nH]c2ccccc12)C(=O)N[C@@H](Cc1c[nH]cn1)C(=O)N[C@@H](CC(=O)O)C(=O)N[C@H](C(=O)N[C@@H](CCC(N)=O)C(=O)N[C@H](C(=O)N[C@@H](CO)C(=O)N[C@@H](CO)C(=O)N[C@@H](C)C(=O)N[C@@H](Cc1ccc(O)cc1)C(N)=O)C(C)C)C(C)C [TPD52L2_91–106 wt]
Kd (MAP1LC3B): 760 ± 150 µM

CC(=O)N[C@@H](C)C(=O)N[C@@H](CC(N)=O)C(=O)N[C@@H](CO)C(=O)N[C@@H](Cc1c[nH]c2ccccc12)C(=O)N[C@@H](CCC(N)=O)C(=O)N[C@@H](CC(C)C)C(=O)N[C@H](C(=O)N[C@@H](CCC(=O)O)C(=O)N[C@H](C(=O)N1CCC[C@H]1C(=O)N[C@@H](CCC(=O)O)C(=O)N[C@@H](CCCCN)C(=O)N[C@@H](CCCNC(=N)N)C(=O)N[C@@H](CCCCN)C(=O)N[C@@H](CCC(=O)O)C(=O)N[C@@H](CCC(=O)O)C(N)=O)[C@@H](C)OP(=O)(O)O)C(C)C [DLGAP4_907–922 pS] (Ac-ANSWQLVE[pT]PEKRKEE-NH2)
Kd (GABARAPL2): 150 ± 32 µM

CC(=O)N[C@@H](CC(N)=O)C(=O)N[C@@H](Cc1ccc(O)cc1)C(=O)N[C@@H](C)C(=O)N1CCC[C@H]1C(=O)N1CCC[C@H]1C(=O)N[C@H](C(=O)N[C@@H](CCCCN)C(=O)N[C@@H](CCCNC(=N)N)C(=O)N[C@@H](CCC(=O)O)C(=O)N[C@@H](CCCNC(=N)N)C(=O)N[C@H](C(=O)N[C@@H](CO)C(=O)N[C@@H](CO)C(=O)N[C@@H](CC(C)C)C(=O)N[C@H](C(=O)N[C@@H](CCC(N)=O)C(N)=O)[C@@H](C)O)[C@@H](C)O)C(C)C [RANBP3_114–129 wt] (Ac-NYAPPVKRERTSSLTQ-NH2)
IC50 (KPNA4 ARM Major): 1.3 ± 0.2 µM | Kd (KPNA4 ARM Major): 0.15 ± 0.01 µM | IC50 (KPNA4 ARM minor): 325 ± 34 µM | Kd (KPNA4 ARM minor): 68 ± 4 µM

CC(=O)NCC(=O)N[C@@H](C)C(=O)N[C@@H](CO)C(=O)N1CCC[C@H]1C(=O)N[C@@H](C)C(=O)N[C@@H](CC(C)C)C(=O)N[C@@H](CCCCN)C(=O)N[C@@H](CCCNC(=N)N)C(=O)N[C@@H](CO)C(=O)N[C@@H](Cc1c[nH]cn1)C(=O)N[C@@H](CO)C(=O)N[C@@H](CC(=O)O)C(=O)N[C@@H](CO)C(=O)N[C@@H](Cc1ccc(O)cc1)C(N)=O [CDC25A114–125 wt] (Ac-GASPALKRSHSDSY-NH2)
Kd (KPNA4 ARM Major): 8.8 ± 0.2 µM | Kd (KPNA4 ARM minor): 0.2 ± 0.004 µM

CC(=O)NCC(=O)N[C@@H](C)C(=O)N[C@@H](COP(=O)(O)O)C(=O)N1CCC[C@H]1C(=O)N[C@@H](C)C(=O)N[C@@H](CC(C)C)C(=O)N[C@@H](CCCCN)C(=O)N[C@@H](CCCNC(=N)N)C(=O)N[C@@H](CO)C(=O)N[C@@H](Cc1c[nH]cn1)C(=O)N[C@@H](CO)C(=O)N[C@@H](CC(=O)O)C(=O)N[C@@H](CO)C(=O)N[C@@H](Cc1ccc(O)cc1)C(N)=O [CDC25A114–125 pS] (Ac-GA[pS]PALKRSHSDSY-NH2)
Kd (KPNA4 ARM Major): 0.63 ± 0.04 µM | Kd (KPNA4 ARM minor): 2.8 ± 0.4 µM

CC(=O)N[C@@H](C)C(=O)N[C@@H](CC(N)=O)C(=O)N[C@@H](CO)C(=O)N[C@@H](Cc1c[nH]c2ccccc12)C(=O)N[C@@H](CCC(N)=O)C(=O)N[C@@H](CC(C)C)C(=O)N[C@H](C(=O)N[C@@H](CCC(=O)O)C(=O)N[C@H](C(=O)N1CCC[C@H]1C(=O)N[C@@H](CCC(=O)O)C(=O)N[C@@H](CCCCN)C(=O)N[C@@H](CCCNC(=N)N)C(=O)N[C@@H](CCCCN)C(=O)N[C@@H](CCC(=O)O)C(=O)N[C@@H](CCC(=O)O)C(N)=O)[C@@H](C)O)C(C)C [DLGAP4_907–922 wt] (Ac-ANSWQLVETPEKRKEE-NH2)
Kd (GABARAPL2; read-out: KD values ± SEM): 174 ± 22 µM

CC(=O)N[C@@H](CC(=O)O)C(=O)N[C@H](C(=O)N[C@@H](CCC(=O)O)C(=O)N[C@@H](Cc1c[nH]cn1)C(=O)NCC(=O)NCC(=O)N[C@@H](CCCCN)C(=O)N[C@@H](CCCNC(=N)N)C(=O)N[C@@H](COP(=O)(O)O)C(=O)N[C@@H](CCCNC(=N)N)C(=O)N[C@@H](CC(C)C)C(=O)N[C@H](C(=O)N1CCC[C@H]1C(=O)N[C@H](C(=O)N[C@@H](CO)C(=O)N[C@@H](Cc1ccc(O)cc1)C(N)=O)C(C)C)[C@@H](C)O)C(C)C [SQSTM1_258–272 pS] (Ac-DVEHGGKR[pS]RLTPVSY-NH2)
Kd (KPNA4 ARM Major): 50 ± 7 µM | Kd (KPNA4 ARM minor): 248 ± 3 µM

CC(=O)N[C@@H](CC(N)=O)C(=O)N[C@@H](Cc1ccc(O)cc1)C(=O)N[C@@H](C)C(=O)N1CCC[C@H]1C(=O)N1CCC[C@H]1C(=O)N[C@H](C(=O)N[C@@H](CCCCN)C(=O)N[C@@H](CCCNC(=N)N)C(=O)N[C@@H](CCC(=O)O)C(=O)N[C@@H](CCCNC(=N)N)C(=O)N[C@H](C(=O)N[C@@H](CO)C(=O)N[C@@H](CO)C(=O)N[C@@H](CC(C)C)C(=O)N[C@H](C(=O)N[C@@H](CCC(N)=O)C(N)=O)[C@@H](C)O)[C@@H](C)OP(=O)(O)O)C(C)C [RANBP3_114–129 pS (p + 5)] (Ac-NYAPPVKRER[pT]SSLTQ-NH2)
IC50 (KPNA4 ARM Major): 10 ± 1 µM | Kd (KPNA4 ARM Major): 1.13 ± 0.05 µM | IC50 (KPNA4 ARM minor): 800 ± 75 µM | Kd (KPNA4 ARM minor): 167 ± 9 µM

CC(=O)N[C@@H](CC(=O)O)C(=O)N[C@H](C(=O)N[C@@H](CCC(=O)O)C(=O)N[C@@H](Cc1c[nH]cn1)C(=O)NCC(=O)NCC(=O)N[C@@H](CCCCN)C(=O)N[C@@H](CCCNC(=N)N)C(=O)N[C@@H](CO)C(=O)N[C@@H](CCCNC(=N)N)C(=O)N[C@@H](CC(C)C)C(=O)N[C@H](C(=O)N1CCC[C@H]1C(=O)N[C@H](C(=O)N[C@@H](CO)C(=O)N[C@@H](Cc1ccc(O)cc1)C(N)=O)C(C)C)[C@@H](C)O)C(C)C [SQSTM1_258–272 wt] (Ac-DVEHGGKRSRLTPVSY-NH2)
Kd (KPNA4 ARM Major): 0.24 ± 0.04 µM | Kd (KPNA4 ARM minor): 14 ± 0.7 µM

CC(=O)N[C@@H](CCC(N)=O)C(=O)N[C@@H](CC(N)=O)C(=O)N[C@@H](CC(C)C)C(=O)N[C@@H](CO)C(=O)N[C@@H](CCCNC(=N)N)C(=O)N[C@@H](COP(=O)(O)O)C(=O)N[C@@H](Cc1c[nH]c2ccccc12)C(=O)N[C@@H](Cc1c[nH]cn1)C(=O)N[C@@H](CC(=O)O)C(=O)N[C@H](C(=O)N[C@@H](CCC(N)=O)C(=O)N[C@H](C(=O)N[C@@H](CO)C(=O)N[C@@H](CO)C(=O)N[C@@H](C)C(=O)N[C@@H](Cc1ccc(O)cc1)C(N)=O)C(C)C)C(C)C [TPD52L2_91–106 pS]
Kd (MAP1LC3B): 61 ± 2 µM
